Key:
Assay type in all cases: cell-based
GPR119 = biological target: T1, GPR119 (Homo sapiens, UniProt Q8TDV5); assay: Selectivity, cellular functional assay
T1 construct: Eurofine Cerep / Eurofine Panlabs Discovery Services
Description: (§1) Compound 20p was screened against a broad panel of NRs and GPCRs to determine its agonist activity in vitro. […]
(§2) The selectivity tests of compound 20p were investigated by Eurofine Cerep (86600, Celle-Levescault, France) and Eurofine Panlabs Discovery Services (No. 25, Wugong, 6th Road, Wugu District, New Taipai City, Taiwan). Compound binding was caluculated as a % inhibition of the binding of radioactively labeled ligand specific for each target. Cellular agonist effect wa calculated as a % of control response to a known reference agonist for each target and cellular antagonist effect as caluculated as a % inhibition of control reference agonist response for each target at 30 µM of compound 20p.
(§3) 12.3%; CAR -2.5%, PPAR alpha 0.0%; PPAR delta -3.6%; PPAR gamma -1.0%; PXR 4.5%; ER alpha -16.6%; ER beta 17% at 30 µM.

GPR40 = biological target: T2, GPR40 (Homo sapiens, UniProt O14842); assay: Selectivity, cellular functional assay
T2 construct: Eurofine Cerep / Eurofine Panlabs Discovery Services
T2 sequence (O14842 whole entry): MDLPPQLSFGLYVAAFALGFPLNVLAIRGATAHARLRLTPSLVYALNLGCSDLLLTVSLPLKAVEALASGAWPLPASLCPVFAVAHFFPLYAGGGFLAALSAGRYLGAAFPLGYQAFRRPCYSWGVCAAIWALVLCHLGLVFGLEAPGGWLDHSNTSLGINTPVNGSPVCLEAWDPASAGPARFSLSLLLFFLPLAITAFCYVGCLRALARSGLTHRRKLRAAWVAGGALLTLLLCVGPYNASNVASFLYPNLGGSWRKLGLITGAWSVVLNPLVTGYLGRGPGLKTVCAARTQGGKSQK
Description: as §1, §2, §3

CAR = biological target: T3, CAR (Homo sapiens, UniProt Q14994); assay: Selectivity, NR functional assay
T3 construct: Eurofine Cerep / Eurofine Panlabs Discovery Services
T3 sequence (Q14994 whole entry): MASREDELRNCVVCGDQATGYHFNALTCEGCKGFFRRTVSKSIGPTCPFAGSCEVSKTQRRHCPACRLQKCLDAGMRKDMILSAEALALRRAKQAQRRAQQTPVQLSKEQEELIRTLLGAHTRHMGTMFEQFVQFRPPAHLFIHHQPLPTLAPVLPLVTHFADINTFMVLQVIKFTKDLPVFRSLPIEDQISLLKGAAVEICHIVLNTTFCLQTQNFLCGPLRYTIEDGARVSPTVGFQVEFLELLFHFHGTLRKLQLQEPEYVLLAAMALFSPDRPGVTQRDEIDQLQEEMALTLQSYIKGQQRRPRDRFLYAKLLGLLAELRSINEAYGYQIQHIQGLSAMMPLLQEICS
Description: as §1, §2, §3

LXR alpha = biological target: T4, LXR alpha (Homo sapiens, UniProt Q13133); assay: Selectivity, NR functional assay
T4 construct: Eurofine Cerep / Eurofine Panlabs Discovery Services
T4 sequence (Q13133 whole entry): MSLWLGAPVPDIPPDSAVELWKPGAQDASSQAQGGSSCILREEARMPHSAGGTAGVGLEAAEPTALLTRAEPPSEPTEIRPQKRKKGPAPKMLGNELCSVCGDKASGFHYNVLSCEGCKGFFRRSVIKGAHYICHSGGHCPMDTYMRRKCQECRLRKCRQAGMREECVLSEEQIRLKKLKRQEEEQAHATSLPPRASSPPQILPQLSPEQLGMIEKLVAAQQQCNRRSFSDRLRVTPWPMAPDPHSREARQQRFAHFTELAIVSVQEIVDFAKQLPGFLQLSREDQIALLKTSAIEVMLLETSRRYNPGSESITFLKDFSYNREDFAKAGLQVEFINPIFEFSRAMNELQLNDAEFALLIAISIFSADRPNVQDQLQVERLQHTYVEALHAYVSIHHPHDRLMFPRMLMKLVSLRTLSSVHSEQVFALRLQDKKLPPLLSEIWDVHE
Description: as §1, §2, §3

LXR beta = biological target: T5, LXR beta (Homo sapiens, UniProt P55055); assay: Selectivity, NR functional assay
T5 construct: Eurofine Cerep / Eurofine Panlabs Discovery Services
T5 sequence (P55055 whole entry): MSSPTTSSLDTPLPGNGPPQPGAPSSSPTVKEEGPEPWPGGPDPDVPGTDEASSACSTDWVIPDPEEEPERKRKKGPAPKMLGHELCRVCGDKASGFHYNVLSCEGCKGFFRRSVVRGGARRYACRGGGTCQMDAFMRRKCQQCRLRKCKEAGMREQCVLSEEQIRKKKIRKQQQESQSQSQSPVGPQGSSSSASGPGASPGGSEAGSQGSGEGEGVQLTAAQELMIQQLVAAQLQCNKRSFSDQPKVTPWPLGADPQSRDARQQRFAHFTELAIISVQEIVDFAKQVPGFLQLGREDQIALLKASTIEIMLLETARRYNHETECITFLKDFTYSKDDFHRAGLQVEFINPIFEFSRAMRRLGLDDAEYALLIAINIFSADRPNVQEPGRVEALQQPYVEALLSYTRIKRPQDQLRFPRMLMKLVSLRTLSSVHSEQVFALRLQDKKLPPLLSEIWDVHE
Description: as §1, §2, §3

PPAR alpha = biological target: T6, PPAR alpha (Homo sapiens, UniProt Q07869); assay: Selectivity, NR functional assay
T6 construct: Eurofine Cerep / Eurofine Panlabs Discovery Services
T6 sequence (Q07869 whole entry): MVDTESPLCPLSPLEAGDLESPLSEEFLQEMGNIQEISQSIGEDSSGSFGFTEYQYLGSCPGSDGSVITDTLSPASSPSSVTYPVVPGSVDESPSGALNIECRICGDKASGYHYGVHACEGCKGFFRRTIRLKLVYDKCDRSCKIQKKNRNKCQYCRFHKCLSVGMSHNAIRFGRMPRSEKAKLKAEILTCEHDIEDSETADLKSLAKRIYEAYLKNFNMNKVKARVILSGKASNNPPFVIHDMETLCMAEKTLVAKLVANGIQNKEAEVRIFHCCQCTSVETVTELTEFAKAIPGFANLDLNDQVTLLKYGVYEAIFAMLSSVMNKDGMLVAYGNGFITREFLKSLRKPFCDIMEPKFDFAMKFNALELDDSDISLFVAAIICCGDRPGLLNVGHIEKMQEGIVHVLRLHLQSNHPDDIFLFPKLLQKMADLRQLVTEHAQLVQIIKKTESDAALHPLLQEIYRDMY
Description: as §1, §2, §3

PPAR delta = biological target: T7, PPAR delta (Homo sapiens, UniProt Q03181); assay: Selectivity, NR functional assay
T7 construct: Eurofine Cerep / Eurofine Panlabs Discovery Services
T7 sequence (Q03181 whole entry): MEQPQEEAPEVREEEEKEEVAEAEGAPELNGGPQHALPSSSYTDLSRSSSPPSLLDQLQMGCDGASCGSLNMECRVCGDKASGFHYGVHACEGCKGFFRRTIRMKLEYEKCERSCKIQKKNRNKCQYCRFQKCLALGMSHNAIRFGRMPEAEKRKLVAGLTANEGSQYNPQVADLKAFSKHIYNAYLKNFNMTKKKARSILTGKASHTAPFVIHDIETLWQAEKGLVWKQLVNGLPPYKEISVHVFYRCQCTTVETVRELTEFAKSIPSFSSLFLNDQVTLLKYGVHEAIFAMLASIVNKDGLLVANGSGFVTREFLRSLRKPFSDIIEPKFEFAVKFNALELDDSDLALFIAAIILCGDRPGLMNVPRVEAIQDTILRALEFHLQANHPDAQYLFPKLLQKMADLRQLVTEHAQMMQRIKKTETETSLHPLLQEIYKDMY
Description: as §1, §2, §3

PPAR gamma = biological target: T8, PPAR gamma (Homo sapiens, UniProt P37231); assay: Selectivity, NR functional assay
T8 construct: Eurofine Cerep / Eurofine Panlabs Discovery Services
T8 sequence (P37231 whole entry): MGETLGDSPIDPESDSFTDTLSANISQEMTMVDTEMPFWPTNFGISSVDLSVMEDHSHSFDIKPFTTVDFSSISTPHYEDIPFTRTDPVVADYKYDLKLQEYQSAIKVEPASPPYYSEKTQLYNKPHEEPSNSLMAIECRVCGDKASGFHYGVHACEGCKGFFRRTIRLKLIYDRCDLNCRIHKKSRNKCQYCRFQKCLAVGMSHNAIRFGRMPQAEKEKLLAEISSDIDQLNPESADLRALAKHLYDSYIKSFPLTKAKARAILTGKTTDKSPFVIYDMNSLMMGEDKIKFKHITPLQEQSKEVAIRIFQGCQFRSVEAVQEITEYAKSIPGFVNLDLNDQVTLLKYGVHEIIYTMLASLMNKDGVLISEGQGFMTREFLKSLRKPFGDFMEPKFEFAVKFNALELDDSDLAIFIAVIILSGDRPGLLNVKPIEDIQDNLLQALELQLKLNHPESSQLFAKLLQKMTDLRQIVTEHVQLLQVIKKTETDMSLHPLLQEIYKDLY
Description: as §1, §2, §3

PXR = biological target: T9, PXR (Homo sapiens, UniProt O75469); assay: Selectivity, NR functional assay
T9 construct: Eurofine Cerep / Eurofine Panlabs Discovery Services
T9 sequence (O75469 whole entry): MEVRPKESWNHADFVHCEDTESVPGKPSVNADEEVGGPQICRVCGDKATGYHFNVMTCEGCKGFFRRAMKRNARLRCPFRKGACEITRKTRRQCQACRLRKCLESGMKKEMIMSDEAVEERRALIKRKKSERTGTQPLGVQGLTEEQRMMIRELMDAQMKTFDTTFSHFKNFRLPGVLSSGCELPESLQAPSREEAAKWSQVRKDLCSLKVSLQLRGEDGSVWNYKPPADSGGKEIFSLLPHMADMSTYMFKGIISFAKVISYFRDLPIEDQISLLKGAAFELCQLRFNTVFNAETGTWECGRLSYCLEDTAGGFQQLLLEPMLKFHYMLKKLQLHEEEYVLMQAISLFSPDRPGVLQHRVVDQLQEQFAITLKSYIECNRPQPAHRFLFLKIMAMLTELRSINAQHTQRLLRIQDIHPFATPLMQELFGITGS
Description: as §1, §2, §3

T1 sequence (Q8TDV5 whole entry): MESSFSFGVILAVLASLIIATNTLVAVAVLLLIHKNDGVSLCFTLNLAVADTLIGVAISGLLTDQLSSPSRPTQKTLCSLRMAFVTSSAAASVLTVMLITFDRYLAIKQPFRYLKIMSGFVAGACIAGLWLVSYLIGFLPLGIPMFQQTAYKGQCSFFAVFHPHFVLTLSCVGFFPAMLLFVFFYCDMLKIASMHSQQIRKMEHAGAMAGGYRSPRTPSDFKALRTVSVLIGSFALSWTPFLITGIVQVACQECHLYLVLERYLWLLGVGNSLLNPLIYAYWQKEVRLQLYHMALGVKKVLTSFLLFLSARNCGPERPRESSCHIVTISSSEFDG

activity at 30 µM (GPR119; 30 µM, read-out: GPR119 cellular agonist effect, % of control response to reference agonist): 1.8% | EC50 (GPR119; cellular functional assay): > 30 µM | activity at 30 µM (GPR40; 30 µM, read-out: GPR40 cellular agonist effect, % of control response to reference agonist): 5.9% | EC50 (GPR40; cellular functional assay): > 30 µM | activity at 30 µM (CAR; 30 µM, read-out: CAR agonist effect, % of control response to reference agonist): -2.5% | EC50 (CAR; NR functional assay): > 30 µM | activity at 30 µM (LXR alpha; 30 µM, read-out: LXR alpha agonist effect, % of control response to reference agonist): 0.2% | EC50 (LXR alpha; NR functional assay): > 30 µM | activity at 30 µM (LXR beta; 30 µM, read-out: LXR beta agonist effect, % of control response to reference agonist): 3.7% | EC50 (LXR beta; NR functional assay): > 30 µM | activity at 30 µM (PPAR alpha; 30 µM, read-out: PPAR alpha agonist effect, % of control response to reference agonist): 0% | EC50 (PPAR alpha; NR functional assay): > 30 µM | activity at 30 µM (PPAR delta; 30 µM, read-out: PPAR delta agonist effect, % of control response to reference agonist): -3.6% | EC50 (PPAR delta; NR functional assay): > 30 µM | activity at 30 µM (PPAR gamma; 30 µM, read-out: PPAR gamma agonist effect, % of control response to reference agonist): -1% | EC50 (PPAR gamma; NR functional assay): > 30 µM | activity at 30 µM (PXR; 30 µM, read-out: PXR agonist effect, % of control response to reference agonist): 4.5% | EC50 (PXR; NR functional assay): > 30 µM
SMILES: COc1cc(Cl)cc(N(CC23CCC(c4ccc(OC)c(C#N)c4)(CC2)CC3)C(=O)c2ccncc2C)c1 [Compound 20p]

— publication PMC8080777, “Discovery, optimization, and evaluation of non-bile acid FXR/TGR5 dual agonists” (Scientific Reports, 2021)
